Values of other authors as cited in patent US20040214804A1, “Combination of an aldosterone receptor antagonist and an anti-obesity agent” (Pharmacia Corporation, priority 2003, published 2004).

Assays:
[1] = system: dietary-induced obesity in dogs; details: during development of dietary-induced obesity
[2] = system: severe heart failure patients; details: left ventricular ejection fraction no more than 35%, on standard therapy (ACE inhibitor, loop diuretic, in some cases digoxin)

| Compound | glomerular hyperfiltration associated with chronic dietary-induced obesity [1] | hypertension associated with chronic dietary-induced obesity [1] | sodium retention associated with chronic dietary-induced obesity [1] | incidence of hospitalization relative to placebo-treated subjects [2] | mortality relative to placebo-treated subjects [2] |
| --- | --- | --- | --- | --- | --- |
| COC(=O)[C@@H]1CC2=CC(=O)CC[C@]2(C)[C@@]23O[C@@H]2C[C@@]2(C)[C@@H](CC[C@@]24CCC(=O)O4)[C@H]13 [Eplerenone, Pregn-4-ene-7,21-dicarboxylic acid, 9,11-epoxy-17-hydroxy-3-oxo-,γ-lactone, methyl ester, (7α,11α,17β)-] | markedly attenuated | markedly attenuated | markedly attenuated |  |  |
| CC(=O)S[C@@H]1CC2=CC(=O)CCC2(C)C2CC[C@]3(C)[C@@H](CC[C@@]34CCC(=O)O4)C21 (stereo partly drawn) [spironolactone, 17-hydroxy-7α-mercapto-3-oxo-17α-pregn-4-ene-21-carboxylic acid γ-lactone acetate] |  |  |  | statistically significant reduction | statistically significant reduction |
